The record followed here is patent US8921516B2, “Synthetic, defined fibronectin mimetic peptides and surfaces modified with the same” (Corning Incorporated, priority 2010, dated 2014).

Test [1] relates to A-172 human glioblastoma cancer cells. In words: A-172 cell attachment to peptide coated surfaces (images and MTS assay). The format is cell-based. The conditions noted are these: A-172 cells, images and MTS assay (FIG. 4A and FIG. 4B); compared with BD BioCoat fibronectin surface. Here is the method: FIG. 4A is an image of A-172 human glioblastoma cancer cells attached to a surface that has a coating thereon of […] (SEQ ID NO: 8) referred to therein as “DA2”, […] (SEQ ID NO: 9) referred to therein as “DA4”, […] (SEQ ID NO: 10) referred to therein as “DA1”, […] (SEQ ID NO: 11) referred to therein as “DA3”.
To explore the ability of a surface modified by the compound of the present invention to mimic one or more functional characteristics of a fibronectin coated surface, cells were seeded and monitored on both such surfaces under the same culture conditions. In brief, LNCaP cells, MIA-PaCa-2, A-172, or RKO cells from ATCC were cultured according to supplier's instructions. LNCaP were cultured in RPMI-1640 Medium (ATCC Catalog No. 30-2001) supplemented with 10% fetal bovine serum. MIA-PaCa-2 and A-172 cells were grown in DMEM (Invitrogen cat #11885-084) supplemented with 10% fetal bovine serum. RKO cells were cultured in EMEM (ATCC cat#30-2003) supplemented with 10% fetal bovine serum. Cells were cultured at 37° C. in a humidified incubator with 5% CO2. For seeding, media was removed, cells were washed with PBS, and 3 ml of 0.25% Trypsin-EDTA was added to the cells in T-75 flask. Flasks were examined under the microscope, once cells detached from the surface, 10 ml culture media was added to neutralize Trypsin. Cells were transferred to a 15 ml. BD Falcon tube and centrifuged at 200×g for 10 min. Supernatant was removed and the cell pellet washed once with DMEM (Invitrogen cat #11885-084) having 200 microgram/ml BSA. Cells were resuspended in DMEM having 200 microgram/ml BSA and seeded at 50,000 cells/cm^2 in 1.0 ml media per well of a 24 well plate. The culture surface was either a surface modified by the compound […] (SEQ ID NO: 7) or BD BioCoat fibronectin which served as a positive control. Additionally, BD tissue culture treated surface served as negative control. Cells were incubated for 24 hr at 37° C. in a humidified incubator with 5% CO2.
In addition to the aforementioned visual analysis, MTS analysis was carried out to quantify the degree of cell attachment. In brief, media was removed by inverting the plate and 300 μl complete media containing MTS (Promega cat #G3582) was added to each well of a 24 well plate. Cells were incubated for 1 hr at 37° C. in a humidified incubator at 5% CO2. Following incubation, 0.1 ml media was transferred to BD Falcon™ 96 well plate and absorbance was measured at 490 nm.
In general terms: Tetrazolium dyes change colour on reduction, which living cells bring about.

Test [2] concerns LNCaP cells. In words: LNCaP cell attachment and spreading on modified surface, visualized by microscope. The format is cell-based, human. The conditions noted are these: 24 hr post-seeding, microscope images (FIG. 1), surface modified by compound vs BD BioCoat fibronectin. Here is the method: (§1) To explore the ability of a surface modified by the compound of the present invention to mimic one or more functional characteristics of a fibronectin coated surface, cells were seeded and monitored on both such surfaces under the same culture conditions. In brief, LNCaP cells, MIA-PaCa-2, A-172, or RKO cells from ATCC were cultured according to supplier's instructions. LNCaP were cultured in RPMI-1640 Medium (ATCC Catalog No. 30-2001) supplemented with 10% fetal bovine serum. MIA-PaCa-2 and A-172 cells were grown in DMEM (Invitrogen cat #11885-084) supplemented with 10% fetal bovine serum. RKO cells were cultured in EMEM (ATCC cat#30-2003) supplemented with 10% fetal bovine serum. Cells were cultured at 37° C. in a humidified incubator with 5% CO2. For seeding, media was removed, cells were washed with PBS, and 3 ml of 0.25% Trypsin-EDTA was added to the cells in T-75 flask. Flasks were examined under the microscope, once cells detached from the surface, 10 ml culture media was added to neutralize Trypsin. Cells were transferred to a 15 ml. BD Falcon tube and centrifuged at 200×g for 10 min. Supernatant was removed and the cell pellet washed once with DMEM (Invitrogen cat #11885-084) having 200 microgram/ml BSA. Cells were resuspended in DMEM having 200 microgram/ml BSA and seeded at 50,000 cells/cm^2 in 1.0 ml media per well of a 24 well plate. […]

For test [3], the system named is LNCaP cells. In words: MTS assay quantification of LNCaP cell attachment. The format is cell-based, human. The conditions noted are these: 24 hr post-seeding, FIG. 2, treated surface vs BD BioCoat fibronectin. Here is the method:
as §1, with “min.” for “min. Supernatant was removed and the cell pellet washed once with DMEM (Invitrogen cat #11885-084) having 200 microgram/ml BSA. Cells were resuspended in DMEM having 200 microgram/ml BSA and seeded at 50,000 cells/cm^2 in 1.0 ml media per well of a 24 well plate.”
In addition to the aforementioned visual analysis, MTS analysis was carried out to quantify the degree of cell attachment. […] Following incubation, 0.1 ml media was transferred to BD Falcon™ 96 well plate and absorbance was measured at 490 nm.

The subject of a further test is A-172 cells. In words: Confluence quantification by IncuCyte of A-172 cell attachment. The format is cell-based, human. Conditions: FIG. 3, treated surface vs BD BioCoat fibronectin. Here is the method:
as §1

The next test has as its system RKO cells. In words: Confluence quantification by IncuCyte of RKO cell attachment. The format is cell-based, human. The conditions noted are these: FIG. 3, treated surface vs BD BioCoat fibronectin. Here is the method:
as §1

As to “KSGRPREDRVPHSRNSITLTNSGTGSGTGSGRGDSP (two regions of a fibronectin cell-binding domain joined by a flexible linker) [SEQ ID NO: 8]”, the “cell attachment and spreading” value in test [1] was “supported cell attachment and spreading similar to a BD BioCoat fibronectin surface”.

With “KSGRGRGDRVPHSRNGITLTNSGSGSGSGSGRGDSP (two regions of a fibronectin cell-binding domain joined by a flexible linker) [SEQ ID NO: 12]”, the “cell attachment and spreading” value in test [1] was “supported cell attachment and spreading similar to a BD BioCoat fibronectin surface”.

For the sequence “KSGRARADRVPHSRNTITLTNSGSGSGSGSGRGDSP (two regions of a fibronectin cell-binding domain joined by a flexible linker) [SEQ ID NO: 10]”, the “cell attachment and spreading” value in test [1] is “supported cell attachment and spreading similar to a BD BioCoat fibronectin surface”.

For “KSGRPREDRVPHSRNSITLTNGGGSGGGSGGGRGDSP (two regions of a fibronectin cell-binding domain joined by a flexible linker) [SEQ ID NO: 9]”, in test [1], the “cell attachment and spreading” value is “supported cell attachment and spreading similar to a BD BioCoat fibronectin surface”.

Take “KSGRPREDRVPHSRNSITLTNSGSGSGSGSGRGDSP (two regions of a fibronectin cell-binding domain joined by a flexible linker) [SEQ ID NO: 7]”: the “cell attachment and spreading” value in the test with LNCaP cells [2] was “comparable”; in test [1] it was “supported cell attachment and spreading similar to a BD BioCoat fibronectin surface”. Also, in the test on LNCaP cells [3], the “LNCaP cell attachment (MTS assay, absorbance at 490 nm)” value is listed as “comparable”. Besides, the “confluence quantification by IncuCyte” value with A-172 cells and in the test on RKO cells was “comparable” each time.

For “KSGRARADRVPHSRNTITLTNGGSGGSGGSGRGDSP (two regions of a fibronectin cell-binding domain joined by a flexible linker) [SEQ ID NO: 11]”, in test [1], the “cell attachment and spreading” value was “supported cell attachment and spreading similar to a BD BioCoat fibronectin surface”.
